Source: patent US20160002310A1, “MODIFIED INGAP PEPTIDES FOR TREATING DIABETES” (THE ROYAL INSTITUTE FOR THE ADVANCEMENT OF LEARNING/MCGILL …, priority 2013, published 2016)
Entries after “also recorded” stand apart in the source; their conditions may differ. Values belong to the compound of their own block, whether it stands above or below them. Positions of bridges follow the written chain, without caps; N, C: chain ends. Residues, ends and D or L forms follow the SMILES beside them. No end group written: not given here.

Assays:
RIN-m5F cells [1] = assay: Effect of pharmacological inhibitors on INGAP-induced BrdU incorporation in RIN-m5F cells; format: cell-based, rat; settings: inhibitor pretreatment, 24 h
Description: Cells were plated in chamber slides and subjected to 30−40 min pretreatment with the indicated inhibitors prior to the addition of growth factors and incubated for 24 h. […] BrdU was added for the last three hours of treatment followed by fixation in Methanol and immunostaining for BrdU. Data are presented as a ratio of BrdU(+) cells (%) in treated versus untreated control. Results are means±S.E. of three independent experiments (*: p<0.05, †: p<0.001).
(§1) To investigate signaling events implicated in INGAP induced proliferation, we employed specific pharmacological inhibitors of Raf (Raf inhibitor 1), PI3 K (wortmannin), PKC (Bis), PKA (H89, PKi), Adenylate cyclase (SQ22536), Src (PP2) and EGFR (AG1478). In addition, Pertussis toxin (Ptx) was used to examine whether INGAP actions were mediated by a GPCR. Effectiveness of these inhibitors was judged by Erk½ phosphorylation after 10 min of treatment with INGAP or EGF or Ex-4, and by BrdU incorporation after 24 h.

Akt = Akt phosphorylation in RIN-m5F cells; format: cell-based, rat; settings: time course
RIN-m5F cells [2] = assay: BrdU incorporation (proliferation) in RIN-m5F cells, 24 h; format: cell-based, rat; settings: positive control
Description: (A): INGAP increased BrdU incorporation. RIN-m5F cells were treated with indicated amounts of INGAP-P or r-INGAP for 24 h in chamber slides. Exendin 4 (Ex4) and EGF were used as controls. 50 μM BrdU was added for the last three hours of treatment followed by fixation in methanol and immunostaining for BrdU. Data are presented as a ratio of BrdU(+) cells (%) in INGAP-treated to untreated control. Results are means±S.E. of three independent experiments (*: p<0.05, §: p<0.001, compared to untreated control). (B): INGAP induced phosphorylation of Erk½ in RIN-m5F. RIN-m5F cells (1×10^6) plated in 60 mm tissue culture plates were treated with INGAP for the times indicated. Blots (30 μg protein) were probed with anti-Erk½-Phospho (Thr202/Tyr204) antibody, followed by stripping/reprobing with anti-total Erk½ antibody (Cell Signaling) and quantified by densitometry, using ImageJ software. (C): Quantification of relative Erk½ phosphorylation measured as a ratio of Phospho-Erk½ to total Erk½ and shown as a Fold Change relative to the 0 min time point. […]
Cells plated in 8-well or 4-well chamber slides (5×10^4 or 1×10^5 cells per well) were treated for 24 h with INGAP, EGF or Ex 4, as described above, and 50 μM BrdU was added during the last 3 hours of treatment. […] BrdU-positive and negative nuclei were counted (total 200 per well) and the percentage of BrdU-positive nuclei was calculated (FIG. 36).

[3] = system: STZ (streptozotocin)-induced diabetes; parameters: species or system mice; settings: mouse, in vivo, ip
Description: In this part of the study, we used a well established model of STZ (streptozotocin)-induced diabetes, resulting in a substantial destruction of beta cell mass. Previous studies conducted in our lab have shown islet neogenic effects of INGAP-peptide (15 L) and INGAP protein after the 8-week administration daily.
Referring to FIG. 42, C57BL/6 J mice (Charles River) 20-25 g, were rendered diabetic by a single injection of 150 mg/kg of STZ. The animals with blood glycemias of 15-30 mM after 7 days were used for the experiment. At 7 days, mice were randomized into 5 groups, 10 mice per group, equal representation of each glycemia level, (average glycemia per group being 24.4+0.0167 mM) and were treated with […] of one of the analogs, IP, daily for 10 weeks. Blood glycemia values were taken weekly from the tip of the tail (fasting and/or non-fasting). The weight of animals was also taken weekly.
After 10 weeks of treatment, the animals were sacrificed and the pancreata were weighed and processed for RNA extraction (still ongoing) and Immunocytochemistry.

[4] = Stability of 5-FAM labeled INGAP analogs in serum and pancreas of non-diabetic mice after IP injection; format: in vivo; settings: 500 mg/mouse IP, 10 min to 2 h
Description: Prior to the start of the STZ experiments, we tested the stability of INGAP analogs in the serum of non-diabetic mice by injecting 5-FAM labeled INGAP analogs (custom made at Canpeptide, Pointe Claire) at […] IP . The analogs were FAM labeled to determine the post-injection time needed for the peptides to reach the pancreas and to potentially identify the target cells. Mice were sacrificed after 10 min, 30 min, 1 h and 2 h (three mice per group) and blood and tissue samples were collected for processing. Blood serum was precipitated with methanol (1:3) to remove serum proteins and the resulting supernatant was analyzed by HPLC to detect presence of INGAP peptides.
These experiments need to be repeated by using cryosections vs paraffin section to minimize a potential loss of the fluorescence.

[5] = Peptide stability in RPMI-1640 medium with 25% FBS, HPLC; format: in vitro ADME; settings: for Comparative peptide stability in FBS: 50 μM peptide; for half-life at 50 μM: bovine
Description: (§2) 50 μM peptides were incubated in RPMI-1640 medium with 25% FBS for the times indicated. Following ethanol precipitation of serum proteins, samples were analyzed by HPLC. To compare dynamics of peptide degradation HPLC profiles were superimposed as shown.
(§3) 50 μM INGAP-PC and INGAP 19C were incubated in RPMI-1640 medium with 25% FBS for the times indicated. Following ethanol precipitation of serum proteins, samples were analyzed by HPLC. To compare dynamics of peptide degradation, HPLC profiles were superimposed as shown.
as §2, with “Degradation profiles of INGAP-P and INGAP-19 peptides in presence of serum were determined (FIG. 20). 50” for “50”
as §3, with “Time-course studies of in vitro incubation of INGAP-PC and INGAP-19C peptides in FBS were also performed (FIG. 21). 50” for “50”

Erk½ = assay: Effect of pharmacological inhibitors on INGAP-induced Erk½ phosphorylation in RIN-m5F cells; format: cell-based, rat; settings: for Effect of inhibitor on INGAP-induced Erk½ phosphorylation: inhibitor pretreatment, 10 min growth factor
Description: 1×10^6 cells were plated in 60 mm plates for 48 hours followed by a 24-h starvation in serum-free medium. Prior to addition of growth factors, cells were pretreated for 30-40 min with the indicated inhibitors, except for Pertussis Toxin (Ptx)(24 h pretreatment). After a 10 min treatment with growth factors, cells were placed on ice and lysed, as described in the Experimental Procedures. Blots (30 μg of proteins) were incubated with Phospho-Erk½ antibody (or with total Erk antibody after stripping) and developed using ECL reagent. Quantification of Erk phosphorylation relative to total Erk and time 0 min control (=1, shown as a dotted line) was performed as described above. (A): Inhibitors of GPCR (Ptx, 100 ng/m1), adenylate cyclase (SQ22536, 250 μM) and PKA (PKi, 100nM; H89, 1μM). (B): inhibitors of PKC (Bis, 1 μM), PI3K (Wm, 100 nM), Src(PP2, 100nM), EGFR(AG1478, 100nM) and Raf Inhibitor l(R-1, 100nM), or DMSO as a solvent (*: p<0.05).
as §1

Compound: O=S(=O)(NCCNC/C=C/c1ccc(Br)cc1)c1cccc2cnccc12 [H89]
Effect of inhibitor on BrdU incorporation induced by growth factors (RIN-m5F cells [1]): reduced BrdU incorporation in rINGAP treated cells

Compound: EGF: positive control growth factor, signals through a classical RTK pathway
Akt phosphorylation (Akt): early activation of Akt | BrdU incorporation, increase compared to negative control (RIN-m5F cells [2]; 10 ng/ml): 1.49 ×

Losses of animals in group [3]: 1 | Presence of peptide in blood serum after injection (HPLC) [4]: still detectable at 2 h | Degradation in presence of serum ([5]; 48 h, 50 μM, RPMI-1640 with 25% FBS): no degradation | Time stable in culture medium ([5]; culture medium, preliminary HPLC data): up to 48 h
Compound: CC[C@H](C)[C@@H]1NC(=O)[C@H](Cc2c[nH]c3ccccc23)NC(=O)[C@H]([C@@H](C)CC)NC(=O)[C@@H](N)CSSC[C@@H](C(=O)O)NC(=O)[C@H](Cc2c[nH]c3ccccc23)NC(=O)CNC(=O)[C@H](CO)NC(=O)CNC(=O)[C@H](CC(N)=O)NC(=O)[C@@H]2CCCN2C(=O)[C@H](CC(C)C)NC(=O)[C@H]([C@@H](C)O)NC(=O)CNC(=O)[C@H](Cc2c[nH]cn2)NC(=O)[C@H](CO)NC(=O)[C@@H]2CCCN2C(=O)[C@H](CC(=O)O)NC(=O)[C@H](Cc2c[nH]cn2)NC(=O)[C@H](CC(C)C)NC(=O)CNC1=O [INGAP-19C] (H-CIWIGLHDPSHGTLPNGSGWC-OH; disulfide 1-21)
Comparative peptide stability in FBS ([5]; RPMI-1640 with 25% FBS): highest stability; also recorded: more stable than linear 15-mer (INGAP-P) or 19-mer (INGAP-19) peptides

Compound: CC(C)(C)n1nc(-c2ccc(Cl)cc2)c2c(N)ncnc21 [PP2]
Effect of inhibitor on INGAP-induced Erk½ phosphorylation (Erk½): inhibited both Erk½ phosphorylation (FIG. 8B) and proliferation (FIG. 16) stimulated by r-INGAP, but not by INGAP-P | Effect of inhibitor on BrdU incorporation induced by growth factors (RIN-m5F cells [1]): inhibited both Erk½ phosphorylation (FIG. 8B) and proliferation (FIG. 16) stimulated by r-INGAP, but not by INGAP-P

Comparative peptide stability in FBS ([5]; RPMI-1640 with 25% FBS): degraded at a similar rate | half-life at 50 μM ([5]; culture medium (RPMI-1640) with 25% fetal bovine serum, culture medium, preliminary HPLC data): 4 to 6 h
Compound: IGLHDPSHGTLPNGS [INGAP-P, N′-IGLHDPSHGTLPNGS-C′]

Compound: Pertussis toxin [Ptx]
Inhibition of INGAP-induced activation of Erk½ (Erk½; 24 h exposure to inhibitor, 10 min INGAP): 40%

Compound: Exendin 4
Akt phosphorylation (Akt): strongest activation of Akt | BrdU incorporation, increase compared to negative control (RIN-m5F cells [2]; 10 nM): 1.56 ×

Losses of animals in group [3]: no losses | half-life ([5]; buffer, culture medium, preliminary HPLC data): 4 to 6 h
Compound: CC[C@H](C)[C@@H]1NC(=O)[C@@H](N)CSSC[C@@H](C(=O)O)NC(=O)[C@H](CO)NC(=O)CNC(=O)[C@H](CC(N)=O)NC(=O)[C@@H]2CCCN2C(=O)[C@H](CC(C)C)NC(=O)[C@H]([C@@H](C)O)NC(=O)CNC(=O)[C@H](Cc2c[nH]cn2)NC(=O)[C@H](CO)NC(=O)[C@@H]2CCCN2C(=O)[C@H](CC(=O)O)NC(=O)[C@H](Cc2c[nH]cn2)NC(=O)[C@H](CC(C)C)NC(=O)CNC1=O [INGAP-PC, N′-CIGLHDPSHGTLPNGSC-C′] (H-CIGLHDPSHGTLPNGSC-OH; disulfide 1-17)

Compound: COc1cccc(-c2cc(=O)c3ccccc3o2)c1N [PD98059]
Effect of inhibitor on INGAP-induced Erk½ phosphorylation (Erk½): inhibition | Effect of inhibitor on BrdU incorporation induced by growth factors (RIN-m5F cells [1]): inhibition

Compound: COc1cc2ncnc(Nc3cccc(Cl)c3)c2cc1OC [AG1478]
Effect of inhibitor on INGAP-induced Erk½ phosphorylation (Erk½): not affected

Compound: Nc1ncnc2c1ncn2C1CCCO1 (stereo not drawn) [SQ22536]
Effect of inhibitor on INGAP-induced Erk½ phosphorylation (Erk½): slightly increased it

Presence of peptide in blood serum after injection (HPLC) [4]: undetectable at 1 h | Comparative peptide stability in FBS ([5]; RPMI-1640 with 25% FBS): no advantage of INGAP-19 over INGAP-P | half-life at 50 μM ([5]; fetal bovine serum (25%) in RPMI-1640 culture medium, culture medium, preliminary HPLC data): 4 to 6 h
Compound: IWIGLHDPSHGTLPNGSGW [INGAP-19, N′-IWIGLHDPSHGTLPNGSGW-C′]
